{
  "source": "paper PMC3108484",
  "about": "(Frontiers in Pharmacology, 2011)",
  "key": {"[1]": {"target": "Rat 5-HT1B (Rattus norvegicus, UniProt P28564)", "assay": "Radioligand binding: Rat 5-HT1B"}, "[2]": {"target": "Human A1 (Homo sapiens, UniProt P30542)", "sequence (P30542 whole entry)": "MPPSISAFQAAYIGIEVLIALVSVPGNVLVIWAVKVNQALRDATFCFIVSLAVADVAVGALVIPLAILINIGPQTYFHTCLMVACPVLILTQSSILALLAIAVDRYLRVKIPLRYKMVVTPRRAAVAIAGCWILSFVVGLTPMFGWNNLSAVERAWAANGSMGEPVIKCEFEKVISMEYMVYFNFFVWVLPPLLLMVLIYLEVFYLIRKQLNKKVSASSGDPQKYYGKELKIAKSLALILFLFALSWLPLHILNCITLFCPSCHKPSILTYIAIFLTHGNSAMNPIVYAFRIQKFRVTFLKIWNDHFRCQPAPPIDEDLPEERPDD", "assay": "Radioligand binding: Human A1"}, "[3]": {"target": "human Nav1.5 (Homo sapiens, UniProt Q14524)", "assay": "Whole cell voltage-clamp, cardiac sodium current", "conditions": "3 μM for 3 min, n = 3 cells"}, "[4]": {"target": "SK+Ca channel", "assay": "Radioligand binding: SK+Ca channel", "conditions": "[125I]-apamin 0.004 nM"}, "[5]": {"target": "Human 5-HT1A (Homo sapiens, UniProt P08908)", "assay": "Radioligand binding: Human 5-HT1A"}, "[6]": {"target": "Bovine 5-HT1D (Bos taurus, UniProt F1MMU1)", "assay": "Radioligand binding: Bovine 5-HT1D"}, "[7]": {"system": "canine antrum, duodenum, and jejunum", "assay": "Dog gastrointestinal contractility", "format": "in vivo", "conditions": "oral, conscious fasted dogs"}, "[8]": {"target": "Human M5 (Homo sapiens, UniProt P08912)", "assay": "Radioligand binding: Human M5"}, "[9]": {"target": "Rat P2Y", "assay": "Radioligand binding: Rat P2Y", "conditions": "[35S]-dATP αS 10 nM"}, "[10]": {"target": "Human VPAC1 (VIP1) (Homo sapiens, UniProt P32241)", "sequence (P32241 31-457)": "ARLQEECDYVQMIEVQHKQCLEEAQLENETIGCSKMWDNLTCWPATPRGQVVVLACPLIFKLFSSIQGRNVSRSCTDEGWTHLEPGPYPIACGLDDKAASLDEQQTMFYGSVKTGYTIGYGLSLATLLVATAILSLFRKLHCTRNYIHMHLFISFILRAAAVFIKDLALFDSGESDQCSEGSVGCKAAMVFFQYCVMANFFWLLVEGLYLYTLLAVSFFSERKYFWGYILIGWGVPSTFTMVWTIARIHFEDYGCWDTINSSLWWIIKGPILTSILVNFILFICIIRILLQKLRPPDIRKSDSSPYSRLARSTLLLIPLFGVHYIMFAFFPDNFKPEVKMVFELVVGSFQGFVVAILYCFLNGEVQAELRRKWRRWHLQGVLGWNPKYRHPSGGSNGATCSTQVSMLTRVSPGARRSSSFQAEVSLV", "assay": "Radioligand binding: Human VPAC1"}, "[11]": {"target": "Mouse sst (non-selective)", "assay": "Radioligand binding: Mouse sst", "conditions": "[125I]-Tyr11-somatostatin 0.05 nM"}, "[12]": {"target": "Human ETB (Homo sapiens, UniProt P24530)", "assay": "Radioligand binding: Human ETB"}, "[13]": {"target": "Human B2 (Homo sapiens, UniProt P30411)", "sequence (P30411 whole entry)": "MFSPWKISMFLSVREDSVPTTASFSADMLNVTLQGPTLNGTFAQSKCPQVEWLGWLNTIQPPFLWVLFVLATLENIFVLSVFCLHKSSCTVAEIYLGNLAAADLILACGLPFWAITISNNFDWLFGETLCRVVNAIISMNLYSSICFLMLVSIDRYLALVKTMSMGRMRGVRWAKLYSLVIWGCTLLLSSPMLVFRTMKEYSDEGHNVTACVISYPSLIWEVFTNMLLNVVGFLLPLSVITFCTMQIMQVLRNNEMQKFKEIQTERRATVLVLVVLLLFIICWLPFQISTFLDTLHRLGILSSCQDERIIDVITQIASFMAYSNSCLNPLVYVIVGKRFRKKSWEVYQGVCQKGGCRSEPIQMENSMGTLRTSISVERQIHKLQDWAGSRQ", "assay": "Radioligand binding: Human B2"}, "[14]": {"target": "Human NK1 (Homo sapiens, UniProt P25103)", "sequence (P25103 whole entry)": "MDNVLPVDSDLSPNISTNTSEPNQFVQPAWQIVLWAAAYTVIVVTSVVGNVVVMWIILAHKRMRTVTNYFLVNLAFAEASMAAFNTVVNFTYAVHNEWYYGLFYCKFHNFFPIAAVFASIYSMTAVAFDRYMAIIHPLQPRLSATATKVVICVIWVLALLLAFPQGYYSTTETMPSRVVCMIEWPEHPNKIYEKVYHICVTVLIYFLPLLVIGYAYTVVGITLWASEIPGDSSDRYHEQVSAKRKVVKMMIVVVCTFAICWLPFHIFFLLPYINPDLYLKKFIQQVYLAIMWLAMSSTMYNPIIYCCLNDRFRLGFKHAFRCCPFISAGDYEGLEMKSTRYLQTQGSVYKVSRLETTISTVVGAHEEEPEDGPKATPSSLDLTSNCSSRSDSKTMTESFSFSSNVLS", "assay": "Radioligand binding: Human NK1"}, "[15]": {"target": "Rat α7 nAChR (α-BGTX-sensitive) (Rattus norvegicus, UniProt Q05941)", "sequence (Q05941 23-502)": "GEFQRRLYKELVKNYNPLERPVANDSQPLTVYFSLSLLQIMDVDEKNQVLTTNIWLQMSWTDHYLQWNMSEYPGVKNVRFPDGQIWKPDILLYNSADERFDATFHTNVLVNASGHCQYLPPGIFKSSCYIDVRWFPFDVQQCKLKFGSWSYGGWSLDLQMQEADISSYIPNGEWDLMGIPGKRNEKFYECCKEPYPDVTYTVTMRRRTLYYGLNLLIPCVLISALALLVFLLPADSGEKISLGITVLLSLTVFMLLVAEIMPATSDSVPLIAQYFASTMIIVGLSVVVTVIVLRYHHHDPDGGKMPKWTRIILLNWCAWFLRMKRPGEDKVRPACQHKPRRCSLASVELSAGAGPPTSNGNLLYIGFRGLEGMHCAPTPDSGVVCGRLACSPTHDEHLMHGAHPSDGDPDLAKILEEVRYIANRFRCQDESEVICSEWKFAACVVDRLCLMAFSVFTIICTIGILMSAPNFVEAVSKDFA", "assay": "biochemical", "format": "binding"}, "[16]": {"target": "Human NK3 (Homo sapiens, UniProt P29371)", "sequence (P29371 whole entry)": "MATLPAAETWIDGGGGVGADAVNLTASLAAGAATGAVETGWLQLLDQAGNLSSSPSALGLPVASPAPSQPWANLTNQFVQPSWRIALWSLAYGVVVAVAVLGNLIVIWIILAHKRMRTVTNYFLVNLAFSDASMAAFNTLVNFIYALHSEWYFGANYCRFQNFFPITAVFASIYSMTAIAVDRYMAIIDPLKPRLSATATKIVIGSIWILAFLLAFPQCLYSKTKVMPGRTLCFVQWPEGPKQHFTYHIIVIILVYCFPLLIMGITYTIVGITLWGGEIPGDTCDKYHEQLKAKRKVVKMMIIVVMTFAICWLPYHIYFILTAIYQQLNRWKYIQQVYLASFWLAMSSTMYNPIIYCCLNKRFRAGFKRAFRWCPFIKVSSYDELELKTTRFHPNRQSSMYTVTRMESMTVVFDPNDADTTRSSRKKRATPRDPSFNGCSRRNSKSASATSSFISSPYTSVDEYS", "assay": "Radioligand binding: Human NK3"}, "[17]": {"target": "Rat NT (non-selective)", "assay": "Radioligand binding: Rat NT", "conditions": "[125I]-Tyr3-neurotensin 0.05 nM"}, "[18]": {"target": "Human V1a (Homo sapiens, UniProt P37288)", "sequence (P37288 whole entry)": "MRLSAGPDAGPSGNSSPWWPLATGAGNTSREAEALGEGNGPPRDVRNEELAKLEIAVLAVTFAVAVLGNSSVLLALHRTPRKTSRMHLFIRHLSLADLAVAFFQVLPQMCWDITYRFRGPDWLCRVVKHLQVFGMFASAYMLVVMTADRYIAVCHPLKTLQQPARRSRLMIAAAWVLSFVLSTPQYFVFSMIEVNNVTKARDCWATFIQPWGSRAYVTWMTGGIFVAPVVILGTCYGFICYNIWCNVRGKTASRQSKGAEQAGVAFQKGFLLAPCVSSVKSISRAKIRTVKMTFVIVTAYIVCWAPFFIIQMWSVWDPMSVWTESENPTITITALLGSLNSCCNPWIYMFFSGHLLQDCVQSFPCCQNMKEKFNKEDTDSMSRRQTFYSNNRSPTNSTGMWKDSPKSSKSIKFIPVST", "assay": "Radioligand binding: Human V1a"}, "[19]": {"target": "Human norepinephrine transporter (Homo sapiens, UniProt P23975)", "sequence (P23975 whole entry)": "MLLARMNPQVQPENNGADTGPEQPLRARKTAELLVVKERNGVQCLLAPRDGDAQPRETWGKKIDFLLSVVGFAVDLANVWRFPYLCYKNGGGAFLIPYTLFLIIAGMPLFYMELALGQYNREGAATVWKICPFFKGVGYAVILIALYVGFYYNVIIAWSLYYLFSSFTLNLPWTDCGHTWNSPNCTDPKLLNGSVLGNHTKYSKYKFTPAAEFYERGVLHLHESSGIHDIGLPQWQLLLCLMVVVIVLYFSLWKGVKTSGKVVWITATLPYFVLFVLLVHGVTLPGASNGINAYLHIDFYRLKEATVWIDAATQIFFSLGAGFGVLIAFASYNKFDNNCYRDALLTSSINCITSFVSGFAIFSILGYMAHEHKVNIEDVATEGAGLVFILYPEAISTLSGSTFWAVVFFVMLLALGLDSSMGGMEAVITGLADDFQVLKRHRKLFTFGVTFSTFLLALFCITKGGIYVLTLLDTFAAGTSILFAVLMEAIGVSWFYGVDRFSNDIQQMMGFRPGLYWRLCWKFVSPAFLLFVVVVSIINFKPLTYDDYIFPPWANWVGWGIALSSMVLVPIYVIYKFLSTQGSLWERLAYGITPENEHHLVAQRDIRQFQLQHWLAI", "assay": "Radioligand binding: Human norepinephrine transporter"}, "[20]": {"target": "Rat GABA (non-selective)", "assay": "Radioligand binding: Rat GABA", "conditions": "[3H]-GABA 10 nM"}, "[21]": {"target": "Human NK2 (Homo sapiens, UniProt P21452)", "assay": "Radioligand binding: Human NK2"}, "[22]": {"target": "Human D2S (Homo sapiens, UniProt P14416)", "sequence (P14416 1-414 isoform P14416-2)": "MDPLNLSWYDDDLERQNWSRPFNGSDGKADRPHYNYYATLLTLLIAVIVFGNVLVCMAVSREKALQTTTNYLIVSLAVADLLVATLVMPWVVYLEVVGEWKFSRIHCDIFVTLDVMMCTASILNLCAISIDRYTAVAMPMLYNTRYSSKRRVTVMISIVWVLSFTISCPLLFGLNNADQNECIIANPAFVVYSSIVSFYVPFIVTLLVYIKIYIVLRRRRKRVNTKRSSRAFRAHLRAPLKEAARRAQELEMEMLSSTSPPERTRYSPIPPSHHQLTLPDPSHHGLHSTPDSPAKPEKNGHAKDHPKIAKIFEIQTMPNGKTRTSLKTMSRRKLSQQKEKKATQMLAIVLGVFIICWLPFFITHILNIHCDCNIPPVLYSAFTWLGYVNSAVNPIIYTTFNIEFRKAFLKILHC", "assay": "Radioligand binding: Human D2S"}, "[23]": {"target": "Rat dopamine transporter (Rattus norvegicus, UniProt P23977)", "sequence (P23977 whole entry)": "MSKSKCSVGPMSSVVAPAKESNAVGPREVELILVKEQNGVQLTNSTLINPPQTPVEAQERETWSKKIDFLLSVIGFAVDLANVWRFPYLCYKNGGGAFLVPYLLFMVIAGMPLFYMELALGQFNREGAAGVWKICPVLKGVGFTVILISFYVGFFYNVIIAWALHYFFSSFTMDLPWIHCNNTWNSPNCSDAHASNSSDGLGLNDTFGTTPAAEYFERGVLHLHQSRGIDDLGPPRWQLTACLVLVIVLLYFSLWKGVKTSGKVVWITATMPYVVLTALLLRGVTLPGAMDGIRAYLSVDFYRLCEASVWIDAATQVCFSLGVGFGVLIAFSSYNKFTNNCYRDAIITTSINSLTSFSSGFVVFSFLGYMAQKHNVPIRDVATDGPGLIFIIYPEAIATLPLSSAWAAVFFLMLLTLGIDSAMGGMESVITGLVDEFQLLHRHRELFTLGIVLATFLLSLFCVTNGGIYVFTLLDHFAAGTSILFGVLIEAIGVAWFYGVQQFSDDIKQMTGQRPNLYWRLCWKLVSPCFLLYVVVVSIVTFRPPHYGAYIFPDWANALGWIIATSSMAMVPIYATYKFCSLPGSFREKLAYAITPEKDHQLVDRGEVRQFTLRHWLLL", "assay": "Radioligand binding: Rat dopamine transporter"}, "[24]": {"target": "Human CCK2 (CCKB) (Homo sapiens, UniProt P32239)", "assay": "Radioligand binding: Human CCK2"}, "[25]": {"target": "K+V channel", "format": "binding", "conditions": "[125I]-α-dendrotoxin 0.01 nM"}, "[26]": {"target": "Human δ2 (Homo sapiens, UniProt P41143)", "assay": "Radioligand binding: Human δ2 opiate receptor"}, "[27]": {"target": "Rat Ca2+ channel (N) (Rattus norvegicus, UniProt Q02294)", "assay": "biochemical", "format": "binding"}, "[28]": {"target": "Human AT1 (Homo sapiens, UniProt P30556)", "sequence (P30556 whole entry)": "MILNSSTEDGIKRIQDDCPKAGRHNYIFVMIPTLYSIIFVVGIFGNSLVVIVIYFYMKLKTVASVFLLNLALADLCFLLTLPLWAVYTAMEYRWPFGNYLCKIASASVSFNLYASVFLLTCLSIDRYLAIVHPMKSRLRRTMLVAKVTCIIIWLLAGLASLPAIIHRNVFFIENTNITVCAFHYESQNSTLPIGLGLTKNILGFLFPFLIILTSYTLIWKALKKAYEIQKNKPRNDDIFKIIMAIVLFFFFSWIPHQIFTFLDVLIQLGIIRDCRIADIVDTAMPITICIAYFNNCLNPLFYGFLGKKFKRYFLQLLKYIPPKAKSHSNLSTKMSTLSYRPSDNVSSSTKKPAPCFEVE", "assay": "Radioligand binding: Human AT1"}, "[29]": {"target": "Rat Ca2+ channel (L, diltiazem site)", "assay": "Radioligand binding: Rat Ca2+ channel", "conditions": "[3H]-diltiazem 5 nM"}, "[30]": {"target": "Rat BB (non-selective)", "assay": "Radioligand binding: Rat BB", "conditions": "[125I]-[Tyr4]-bombesin 0.01 nM"}, "[31]": {"target": "Human 5-HT2A (Homo sapiens, UniProt P28223)", "assay": "Radioligand binding: Human 5-HT2A"}, "[32]": {"target": "Human ETA (Homo sapiens, UniProt P25101)", "assay": "Radioligand binding: Human ETA"}, "[33]": {"target": "Human 5-HT5a (Homo sapiens, UniProt P47898)", "assay": "Radioligand binding: Human 5-HT5a"}, "[34]": {"conditions": "read-out: % Inhibition of specific binding (1 μM)"}},
  "data": [
    {"smiles": "COC(=O)N1CCC(CN2CCC(CNC(=O)c3cccc4[nH]c(C(C)C)nc34)CC2)CC1", "note": "[TD-8954, 4-(4-{[(2-isopropyl-1H-benzoimidazole-4-carbonyl)amino]methyl}-piperidin-1-ylmethyl)piperidine-1-carboxylic acid methyl ester]", "values": [
      {"measurement": "Ki", "setting": "[1]", "value": "> 1", "unit": "µM"},
      {"measurement": "Ki", "setting": "[2]", "value": "> 1", "unit": "µM"},
      {"measurement": "inhibition at 1 µM", "setting": "[2]; [34]", "value": -4, "unit": "%"},
      {"measurement": "effect on magnitude of inward human Nav1.5 sodium current", "setting": "[3]", "value": "no effect"},
      {"measurement": "pKi", "setting": "[4]", "value": "<6"},
      {"measurement": "% Inhibition of specific binding (1 μM)", "setting": "[4]; TD-8954 1 μM", "value": "−4", "unit": "%"},
      {"measurement": "Ki", "setting": "[5]", "value": "> 1", "unit": "µM"},
      {"measurement": "Ki", "setting": "[6]", "value": "> 1", "unit": "µM"},
      {"measurement": "onset of contractile activity after dosing", "setting": "[7]", "value": "≤ 10", "unit": "min"},
      {"measurement": "effect on contractility in the antrum, duodenum, and jejunum", "setting": "[7]; TD-8954 0.01 and 0.03 mg/kg, tegaserod 0.1 and 0.3 mg/kg", "value": "increases in contractility"},
      {"measurement": "Ki", "setting": "[8]", "value": "> 10", "unit": "µM"},
      {"measurement": "pKi", "setting": "[9]", "value": "<6"},
      {"measurement": "% Inhibition of specific binding (1 μM)", "setting": "[9]; TD-8954 1 μM", "value": 8, "unit": "%"},
      {"measurement": "Ki", "setting": "[10]", "value": "> 1", "unit": "µM"},
      {"measurement": "inhibition at 1 µM", "setting": "[10]; [34]", "value": 2, "unit": "%"},
      {"measurement": "pKi", "setting": "[11]", "value": "<6"},
      {"measurement": "% Inhibition of specific binding (1 μM)", "setting": "[11]; TD-8954 1 μM", "value": "−6", "unit": "%"},
      {"measurement": "Ki", "setting": "[12]", "value": "> 1", "unit": "µM"},
      {"measurement": "inhibition at 1 µM", "setting": "[12]; [34]", "value": 5, "unit": "%"},
      {"measurement": "Ki", "setting": "[13]", "value": "> 1", "unit": "µM"},
      {"measurement": "inhibition at 1 µM", "setting": "[13]; [34]", "value": 3, "unit": "%"},
      {"measurement": "Ki", "setting": "[14]", "value": "> 1", "unit": "µM"},
      {"measurement": "inhibition at 1 µM", "setting": "[14]; [34]", "value": -2, "unit": "%"},
      {"measurement": "Ki", "setting": "[15]", "value": "> 1", "unit": "µM"},
      {"measurement": "inhibition at 1 µM", "setting": "[15]; [34]", "value": 3, "unit": "%"},
      {"measurement": "Ki", "setting": "[16]", "value": "> 1", "unit": "µM"},
      {"measurement": "inhibition at 1 µM", "setting": "[16]; [34]", "value": -3, "unit": "%"},
      {"measurement": "pKi", "setting": "[17]", "value": "<6"},
      {"measurement": "% Inhibition of specific binding (1 μM)", "setting": "[17]; TD-8954 1 μM", "value": 4, "unit": "%"},
      {"measurement": "Ki", "setting": "[18]", "value": "> 1", "unit": "µM"},
      {"measurement": "inhibition at 1 µM", "setting": "[18]; [34]", "value": 1, "unit": "%"},
      {"measurement": "Ki", "setting": "[19]", "value": "> 1", "unit": "µM"},
      {"measurement": "inhibition at 1 µM", "setting": "[19]; [34]", "value": 6, "unit": "%"},
      {"measurement": "pKi", "setting": "[20]", "value": "<6"},
      {"measurement": "% Inhibition of specific binding (1 μM)", "setting": "[20]; TD-8954 1 μM", "value": "−6", "unit": "%"},
      {"measurement": "Ki", "setting": "[21]", "value": "> 1", "unit": "µM"},
      {"measurement": "Ki", "setting": "[22]", "value": "> 1", "unit": "µM"},
      {"measurement": "inhibition at 1 µM", "setting": "[22]; [34]", "value": 6, "unit": "%"},
      {"measurement": "Ki", "setting": "[23]", "value": "> 1", "unit": "µM"},
      {"measurement": "inhibition at 1 µM", "setting": "[23]; [34]", "value": 3, "unit": "%"},
      {"measurement": "Ki", "setting": "[24]", "value": "> 1", "unit": "µM"},
      {"measurement": "inhibition at 1 µM", "setting": "[24]; [34]", "value": -1, "unit": "%"},
      {"measurement": "pKi", "setting": "[25]", "value": "<6"},
      {"measurement": "% Inhibition of specific binding (1 μM)", "setting": "[25]; TD-8954 1 μM", "value": "−5", "unit": "%"},
      {"measurement": "Ki", "setting": "[26]", "value": "> 1", "unit": "µM"},
      {"measurement": "Ki", "setting": "[27]", "value": "> 1", "unit": "µM"},
      {"measurement": "Ki", "setting": "[28]", "value": "> 1", "unit": "µM"},
      {"measurement": "inhibition at 1 µM", "setting": "[28]; [34]", "value": 2, "unit": "%"},
      {"measurement": "pKi", "setting": "[29]", "value": "<6"},
      {"measurement": "pKi", "setting": "[30]", "value": "<6"},
      {"measurement": "% Inhibition of specific binding (1 μM)", "setting": "[30]; TD-8954 1 μM", "value": 4, "unit": "%"},
      {"measurement": "Ki", "setting": "[31]", "value": "> 1", "unit": "µM"},
      {"measurement": "Ki", "setting": "[32]", "value": "> 1", "unit": "µM"},
      {"measurement": "Ki", "setting": "[33]", "value": "> 1", "unit": "µM"}
    ]}
  ]
}
